Consider 30 compounds from US10626112B2, “Heterocyclic sulfonamide derivative and medicine comprising same” (EA PHARMA CO., LTD., priority 2014, dated 2020).

The IC50 is the concentration that inhibits the measured activity by half.

The target in this test is human TRPA1 (Homo sapiens (Human), UniProt O75762). Description: Measurement of TRPA1 antagonist activity (1): intracellular calcium increase. Type of test: cell-based. The conditions noted are these: 293T cells transfected with human TRPA1 expression plasmid; allylisothiocyanate 20 μM stimulation; intracellular calcium fluorescence; read-out: hTRPA1 IC50. In outline:
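Calcium-flux readout of TRPA1 block: compound given 10 min before 20 μM (final) allylisothiocyanate, fluorescence tracked 5 min. Cells were 293T transiently expressing human TRPA1, dye-loaded 1 hr in HBSS, 20 mM HEPES, pH 7.2. Inhibition scaled between agonist-only and buffer-only responses; IC50 by sigmoid fitting.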
In general terms: Calcium assays in cells follow changes in intracellular calcium, usually with a dye or a luminescent sensor.

human TRPA1, sequence (O75762 whole entry): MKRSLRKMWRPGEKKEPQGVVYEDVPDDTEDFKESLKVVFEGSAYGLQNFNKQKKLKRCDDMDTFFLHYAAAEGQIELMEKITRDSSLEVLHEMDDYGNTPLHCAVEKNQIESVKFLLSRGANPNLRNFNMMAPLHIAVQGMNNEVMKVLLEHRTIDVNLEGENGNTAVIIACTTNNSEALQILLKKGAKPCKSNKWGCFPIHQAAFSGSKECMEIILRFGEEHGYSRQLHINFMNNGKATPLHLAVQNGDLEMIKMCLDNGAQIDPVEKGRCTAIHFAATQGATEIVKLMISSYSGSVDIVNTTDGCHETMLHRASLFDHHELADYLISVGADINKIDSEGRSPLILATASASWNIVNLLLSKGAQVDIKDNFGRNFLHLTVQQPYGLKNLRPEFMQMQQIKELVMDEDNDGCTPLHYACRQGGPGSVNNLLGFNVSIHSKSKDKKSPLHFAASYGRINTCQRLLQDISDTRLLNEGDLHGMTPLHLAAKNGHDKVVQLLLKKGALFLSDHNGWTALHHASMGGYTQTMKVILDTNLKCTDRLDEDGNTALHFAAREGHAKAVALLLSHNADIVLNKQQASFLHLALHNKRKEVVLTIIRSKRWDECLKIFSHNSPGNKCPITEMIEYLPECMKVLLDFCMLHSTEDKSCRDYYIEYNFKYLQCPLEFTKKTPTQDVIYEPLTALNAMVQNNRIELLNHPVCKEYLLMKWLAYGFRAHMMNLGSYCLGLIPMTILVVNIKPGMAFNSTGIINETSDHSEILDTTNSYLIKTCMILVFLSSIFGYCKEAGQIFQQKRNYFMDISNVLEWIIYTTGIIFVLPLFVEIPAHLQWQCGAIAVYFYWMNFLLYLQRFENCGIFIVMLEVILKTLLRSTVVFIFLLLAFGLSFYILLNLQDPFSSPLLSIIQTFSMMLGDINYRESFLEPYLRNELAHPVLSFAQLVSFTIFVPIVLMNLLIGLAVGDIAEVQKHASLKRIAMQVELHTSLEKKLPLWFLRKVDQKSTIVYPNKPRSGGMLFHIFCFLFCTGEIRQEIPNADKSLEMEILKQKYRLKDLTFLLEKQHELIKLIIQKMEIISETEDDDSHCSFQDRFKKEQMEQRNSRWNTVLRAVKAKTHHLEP

For `O=C(NCc1cc(-c2ccc(C(F)(F)F)nc2)ccn1)[C@@H]1CCCN1S(=O)(=O)c1cc2ccccc2o1` [Example 151, (2S)-1-(benzofuran-2-ylsulfonyl)-N-[[4-[6-(trifluoromethyl)-3-pyridyl]-2-pyridyl]methyl]pyrrolidine-2-carboxamide], the IC50 stood at 1.9 nM.

For `N#Cc1ccc(-c2ccnc(CNC(=O)[C@@H]3CCCN3S(=O)(=O)c3cc4ccccc4o3)c2)nc1` [Example 152, (2S)-1-(benzofuran-2-ylsulfonyl)-N-[[4-(5-cyano-2-pyridyl)-2-pyridyl]methyl]pyrrolidine-2-carboxamide], the IC50 amounted to 160 nM.

Regarding `O=C(NCc1cc(-c2ccc(OC(F)(F)F)cc2)ccn1)[C@@H]1CCCN1S(=O)(=O)c1cc2ccccc2o1` [Example 153, (2S)-1-(benzofuran-2-ylsulfonyl)-N-[[4-[4-(trifluoromethoxy)phenyl]-2-pyridyl]methyl]pyrrolidine-2-carboxamide], the half-maximal inhibitory concentration (IC50) turned out to be 5.6 nM.

As for `Cn1nc(C(F)(F)F)cc1-c1ccnc(CNC(=O)[C@@H]2CCCN2S(=O)(=O)c2cc3ccccc3o2)c1` [Example 154, (2S)-1-(benzofuran-2-ylsulfonyl)-N-[[4-[2-methyl-5-(trifluoromethyl)pyrazol-3-yl]-2-pyridyl]methyl]pyrrolidine-2-carboxamide], the IC50 was determined as 42 nM.

`O=C(NCc1cccc(-c2ccc(F)cc2)c1)[C@@H]1CCCN1S(=O)(=O)c1cc2cc(F)ccc2o1` [Example 155, (2S)-1-(5-fluorobenzofuran-2-yl)sulfonyl-N-[[3-(4-fluorophenyl)phenyl]methyl]-pyrrolidine-2-carboxamide]: the half-maximal inhibitory concentration (IC50) amounted to 4 nM.

Consider `O=C(NCc1cccc(-c2ccc(Cl)cc2)c1)[C@@H]1CCCN1S(=O)(=O)c1cc2cc(F)ccc2o1` [Example 156, (2S)-N-[[3-(4-chlorophenyl)phenyl]methyl]-1-(5-fluorobenzofuran-2-yl)sulfonyl-pyrrolidine-2-carboxamide], for which the IC50 came out at 2.1 nM.

As for `O=C(NCc1cccc(-c2ccc(C(F)(F)F)cc2)c1)[C@@H]1CCCN1S(=O)(=O)c1cc2cc(F)ccc2o1` [Example 157, (2S)-1-(5-fluorobenzofuran-2-yl)sulfonyl-N-[[3-[4-(trifluoromethyl)phenyl]-phenyl]methyl]pyrrolidine-2-carboxamide], the IC50 turned out to be 0.48 nM.

In the case of `O=C(NCc1cccc(-c2ccc(OC(F)(F)F)cc2)c1)[C@@H]1CCCN1S(=O)(=O)c1cc2cc(F)ccc2o1` [Example 158, (2S)-1-(5-fluorobenzofuran-2-yl)sulfonyl-N-[[3-[4-(trifluoromethoxy)phenyl]-phenyl]methyl]pyrrolidine-2-carboxamide], the IC50 amounted to 0.83 nM.

Regarding `CN(C)c1ccc(-c2cccc(CNC(=O)[C@@H]3CCCN3S(=O)(=O)c3cc4cc(F)ccc4o3)c2)cn1` [Example 159, (2S)-N-[[3-[6-(dimethylamino)-3-pyridyl]phenyl]methyl]-1-(5-fluorobenzofuran-2-yl)sulfonyl-pyrrolidine-2-carboxamide], the IC50 is 6.2 nM.

Turning to `O=C(NCc1cccc(-c2ccc(N3CCCC3)nc2)c1)[C@@H]1CCCN1S(=O)(=O)c1cc2cc(F)ccc2o1` [Example 160, (2S)-1-(5-fluorobenzofuran-2-yl)sulfonyl-N-[[3-(6-pyrrolidin-1-yl-3-pyridyl)phenyl]methyl]-pyrrolidine-2-carboxamide], the IC50 amounted to 19 nM.

Consider `O=C(NCc1cccc(-c2ccc(N3CCOCC3)nc2)c1)[C@@H]1CCCN1S(=O)(=O)c1cc2cc(F)ccc2o1` [Example 161, (2S)-1-(5-fluorobenzofuran-2-yl)sulfonyl-N-[[3-(6-morpholino-3-pyridyl)phenyl]methyl]-pyrrolidine-2-carboxamide], for which the IC50 came to 27 nM.

For the compound `CNC(=O)c1ccc(-c2cccc(CNC(=O)[C@@H]3CCCN3S(=O)(=O)c3cc4cc(F)ccc4o3)c2)cn1` [Example 162, 5-[3-[[[(2S)-1-(5-fluorobenzofuran-2-yl)sulfonylpyrrolidine-2-carbonyl]amino]methyl]phenyl]-N-methyl-pyridine-2-carboxamide], the IC50 was found to be 51 nM.

As to `N#Cc1cncc(-c2cccc(CNC(=O)[C@@H]3CCCN3S(=O)(=O)c3cc4cc(F)ccc4o3)c2)c1` [Example 163, (2S)-N-[[3-(5-cyano-3-pyridyl)phenyl]methyl]-1-(5-fluorobenzofuran-2-yl)sulfonyl-pyrrolidine-2-carboxamide], the IC50 was 31 nM.

For `O=C(NCc1ccc(-c2ccc(C(F)(F)F)cc2)cc1)[C@@H]1CCCN1S(=O)(=O)c1cc2ccccc2o1` [Example 165, (2S)-1-(benzofuran-2-ylsulfonyl)-N-[[4-[4-(trifluoromethyl)phenyl]-phenyl]methyl]pyrrolidine-2-carboxamide], the IC50 was 190 nM.

With `O=C(NCc1ccc(-c2cccc(C(F)(F)F)c2)cc1)[C@@H]1CCCN1S(=O)(=O)c1cc2ccccc2o1` [Example 166, (2S)-1-(benzofuran-2-ylsulfonyl)-N-[[4-[3-(trifluoromethyl)phenyl]-phenyl]methyl]pyrrolidine-2-carboxamide], the concentration for half-maximal inhibition (IC50) turned out to be 260 nM.

As to `O=C(NCc1ccc(-c2ccccc2C(F)(F)F)cc1)[C@@H]1CCCN1S(=O)(=O)c1cc2ccccc2o1` [Example 167, (2S)-1-(benzofuran-2-ylsulfonyl)-N-[[4-[2-(trifluoromethyl)phenyl]-phenyl]methyl]pyrrolidine-2-carboxamide], the IC50 came to 140 nM.

For `O=C(NCc1ccc(-c2ccc(F)cc2)cc1)[C@@H]1CCCN1S(=O)(=O)c1cc2ccccc2o1` [Example 168, (2S)-1-(benzofuran-2-ylsulfonyl)-N-[[4-(4-fluorophenyl)phenyl]methyl]-pyrrolidine-2-carboxamide], the IC50 worked out at 180 nM.

As for `O=C(NCc1ccc(-c2cccc(F)c2)cc1)[C@@H]1CCCN1S(=O)(=O)c1cc2ccccc2o1` [Example 169, (2S)-1-(benzofuran-2-ylsulfonyl)-N-[[4-(3-fluorophenyl)phenyl]methyl]-pyrrolidine-2-carboxamide], the IC50 stood at 150 nM.

For the compound `N#Cc1ccc(-c2ccc(CNC(=O)[C@@H]3CCCN3S(=O)(=O)c3cc4ccccc4o3)cc2)cc1` [Example 170, (2S)-1-(benzofuran-2-ylsulfonyl)-N-[[4-(4-cyanophenyl)phenyl]methyl]-pyrrolidine-2-carboxamide], the IC50 worked out at 230 nM.

On to `N#Cc1cccc(-c2ccc(CNC(=O)[C@@H]3CCCN3S(=O)(=O)c3cc4ccccc4o3)cc2)c1` [Example 171, (2S)-1-(benzofuran-2-ylsulfonyl)-N-[[4-(3-cyanophenyl)phenyl]methyl]-pyrrolidine-2-carboxamide], for which the IC50 was found to be 510 nM.

For `CN(C)c1ccc(-c2ccc(F)c(CNC(=O)[C@@H]3CCCN3S(=O)(=O)c3cc4ccccc4o3)c2)cn1` [Example 172, (2S)-1-(benzofuran-2-ylsulfonyl)-N-[[5-[6-(dimethylamino)-3-pyridyl]-2-fluoro-phenyl]methyl]pyrrolidine-2-carboxamide], the IC50 is 11 nM.

`O=C(NCc1cc(-c2cnc(C3CC3)nc2)ccc1F)[C@@H]1CCCN1S(=O)(=O)c1cc2ccccc2o1` [Example 173, (2S)-1-(benzofuran-2-ylsulfonyl)-N-[[5-(2-cyclopropylpyrimidin-5-yl)-2-fluoro-phenyl]methyl]pyrrolidine-2-carboxamide]: the IC50 came to 17 nM.

`CN(C)c1ncc(-c2ccc(F)c(CNC(=O)[C@@H]3CCCN3S(=O)(=O)c3cc4ccccc4o3)c2)cn1` [Example 174, (2S)-1-(benzofuran-2-ylsulfonyl)-N-[[5-[2-(dimethylamino)pyrimidin-5-yl]-2-fluoro-phenyl]methyl]pyrrolidine-2-carboxamide]: the IC50 was 29 nM.

Regarding `CN(C(=O)OC(C)(C)C)c1ccc(-c2ccc(F)c(CNC(=O)C3CCCN3S(=O)(=O)c3cc4ccccc4o3)c2)cn1` [Example 175, tert-butyl N-[5-[3-[[[(2S)-1-benzofuran-2-ylsulfonyl)pyrrolidine-2-carbonyl]amino]methyl]-4-fluoro-phenyl]-2-pyridyl]-N-methylcarbamate], the IC50 is 13 nM.

As to `O=C(NCc1ccnc(-c2cc3ccccc3[nH]2)c1)[C@@H]1CCCN1S(=O)(=O)c1cc2ccccc2o1` [Example 176, (2S)-1-(benzofuran-2-ylsulfonyl)-N-[[2-(1H-indol-2-yl)-4-pyridyl]methyl]pyrrolidine-2-carboxamide], the IC50 was found to be 320 nM.

Regarding `CNc1ccc(-c2ccc(F)c(CNC(=O)[C@@H]3CCCN3S(=O)(=O)c3cc4ccccc4o3)c2)cn1` [Example 177, (2S)-1-(benzofuran-2-ylsulfonyl)-N-[[2-fluoro-5-[6-(methylamino)-3-pyridyl]phenyl]methyl]pyrrolidine-2-carboxamide], the IC50 turned out to be 300 nM.

As to `O=C(NCc1ccnc(-c2ccc(C(F)(F)F)cn2)c1)[C@@H]1CCCN1S(=O)(=O)c1cc2ccccc2o1` [Example 178, (2S)-1-(benzofuran-2-ylsulfonyl)-N-[[2-[5-(trifluoromethyl)-2-pyridyl]-4-pyridyl]methyl]pyrrolidine-2-carboxamide], the IC50 turned out to be 46 nM.

With `C[C@H](NS(=O)(=O)c1cc2ccccc2o1)C(=O)NCc1ccnc(-c2ccc(C(F)(F)F)cc2O)c1` [Example 180, (2S)-2-(benzofuran-2-ylsulfonylamino)-N-[[2-[2-hydroxy-4-(trifluoromethyl)phenyl]-4-pyridyl]methyl]propanamide], the IC50 was found to be 69 nM.

As to `C[C@H](NS(=O)(=O)c1cc2cc(F)ccc2o1)C(=O)NCc1ccnc(-c2ccc(C(F)(F)F)cc2O)c1` [Example 181, (2S)-2-[(5-fluorobenzofuran-2-yl)sulfonylamino]-N-[[2-[2-hydroxy-4-(trifluoromethyl)phenyl]-4-pyridyl]methyl]propanamide], the IC50 is 21 nM.

As for `C[C@H](NS(=O)(=O)c1cc2ccccc2o1)C(=O)NCc1cccc(OCc2ccc(C#N)cc2)c1` [Example 182, (2S)-2-(benzofuran-2-ylsulfonylamino)-N-[[3-[(4-cyanophenyl)methoxy]phenyl]methyl]propanamide], the concentration for half-maximal inhibition (IC50) stood at 94 nM.
